Measured values published in patent US20020045780A1, “Biologically active spermidine analogues, pharmaceutical compositions and methods of treatment” (priority 1997, published 2002).
“Also recorded” adds a separate entry of the source. Where a name gives a salt, the structure may show the parent alone. Read-outs that look alike come from different tables or passages of the source.

Columns and labels:
L1210 cells [1] = assay: Metabolic transformation of polyamine analogues by L1210 cells; type: in vitro ADME, murine; settings: 48 hours
Protocol: (§1) The cells were washed twice with cold RPMI-1640, and the pellet was treated with 0.6 N HClO4 (1 ml/10^7 cells). Polyamine contents of the perchloric acid extracts were quantitated by HPLC of the DANSYL derivatives [Bergeron et al, J. Med. Chem., Vol. 37, supra].

L1210 cells [2] = assay: L1210 growth inhibition, IC50 determination; type: cell-based, murine; settings: Mus musculus
Protocol: Murine L1210 leukemia cells (ATCC CCL 219) were maintained in logarithmic growth in RPMI-1640 medium containing 10% fetal calf serum or a semi-synthetic equivalent, NuSerum, 2% HEPES-MOPS buffer and 1 mM aminoguanidine.

[3] = system: ornithine decarboxylase (ODC); assay: ODC activity in treated L1210 cells; type: cell-based, murine; settings: L1210, 1 μM at 4 hours
Protocol: (§2) On the basis of these studies, it was elected to evaluate the impact of the triamines on ODC and AdoMetDC at 4 and 6 hours, respectively.
(§3) ODC and AdoMetDC activities were determined as ^14CO2 released from [^14C]-carboxyl-labeled L-ornithine [Seely et al, “Ornithine Decarboxylase (Mouse Kidney),” Methods Enzymol., Vol. 94, pages 158-161 (1983)] or S-adenosyl-L-methionine [Pegg et al, “S-Adenosylmethionine Decarboxylase (Rat Liver),” Methods Enzymol., Vol. 94, pages 234-239 (1983)], respectively. Included in each assay were untreated L1210 cells as controls, as well as cells treated with DEHSPM, a drug having a known reproducible effect on each enzyme, as positive controls.

[4] = system: polyamine transport apparatus; assay: Competitive uptake determination: inhibition of [3H]spermidine transport into L1210 cells; type: cell-based, murine; settings: analogue inhibition of spermidine transport
Protocol: The ability of the norspermidines, spermidines, homospermidines, 4,5- and 5,5-triamines to compete with radiolabeled SPD for uptake was evaluated (Table 1). The general trend is that the terminally alkylated triamines have higher Ki values than the unalkylated triamines and are thus less easily taken up by the cell. […] This is not completely true with the norspermidines and the 5,5 triamines. The relationship holds with methyl and ethyl but not for the propyl of the latter two systems. Finally, the number of methylenes separating the amines plays a role in determining polyamine uptake properties. In general the effectiveness with which the analogues compete for uptake is spermidines≈homospermidines>4,5 triamines>5,5 triamines>norspermidine.
The polyamine derivatives were studied for their ability to compete with [^3H]-SPD for uptake into L1210 cells [Bergeron et al, J. Med. Chem., Vol. 37, supra]. Lineweaver-Burk plots indicated a simple competitive inhibition with respect to SPD.

[5] = system: S-adenosylmethionine decarboxylase (AdoMetDC); assay: AdoMetDC activity in treated L1210 cells; type: cell-based, murine; settings: L1210, 1 μM at 6 hours
Protocol: as §2, §3

L1210 cells [6] = assay: Polyamine pool analysis in L1210 cells; type: cell-based, murine; settings: for activity at 100 µM / activity at 500 µM: Mus musculus, L1210, 48 h, % of untreated control; for Analogue: intracellular amount
Protocol: The following guidelines were adopted for studying the impact of the analogues on polyamine pools (Table 2). The measurements were made after a 48-hour exposure to the analogue, and two different concentrations of analogue were evaluated in each case.
as §1

[7] = system: spermidine/spermine acetyltransferase (SSAT); assay: SSAT activity in treated L1210 cells; type: cell-based, murine; settings: L1210, 10 μM at 48 hours (triamine analogues)
Description: Spermidine/spermine N^1-acetyltransferase activity was based on quantitation of [^14C]-N^1-acetylspermidine formed by acetylation of SPD with [^14C] acetyl coenzyme A according to the method of Libby et al [Biochem. Pharmacol., Vol. 38, supra]. Cells treated with DENSPM were positive controls.

[8] = L1210, 48 h, L1210, 48 hour exposure, read-out: IC50 48 hour
[9] = L1210, 96 h, L1210, 96 hour exposure, read-out: IC50 96 hour

Compound | IC50 (L1210 cells [2]; [8]) [µM] | IC50 (L1210 cells [2]; [9]) [µM] | ODC activity, percent of untreated control [3] | Ki [4] [µM] | AdoMetDC activity, percent of untreated control [5] | activity at 100 µM (L1210 cells [6]; 100 μM, read-out: Put) [%] | activity at 100 µM (L1210 cells [6]; 100 μM, read-out: Spd) [%] | activity at 100 µM (L1210 cells [6]; 100 μM, read-out: Spm) [%] | activity at 500 µM (L1210 cells [6]; 500 μM, read-out: Put) [%] | activity at 500 µM (L1210 cells [6]; 500 μM, read-out: Spd) [%] | activity at 500 µM (L1210 cells [6]; 500 μM, read-out: Spm) [%] | Analogue (L1210 cells [6]; 100 μM, 48 hours) [nmol/10^6 cells] | Analogue (L1210 cells [6]; 500 μM, 48 hours) [nmol/10^6 cells] | SSAT activity, percent of untreated control [7] | Parent drug as % of total drug in the cell (L1210 cells [1]; 100 μM analogue) [%] | Parent drug in L1210 cells (L1210 cells [1]; 100 μM analogue) [pmols/10^6] | other results
CCCNCCCCCNCCCCCNCCC [DP(5,5), 4,10,16-Triazanonadecane Trihydrochloride] | > 100 | 6 | 73% of untreated control | 87 | 123% of untreated control | 59 | 73 | 97 | 51 | 69 | 103 | 0.86 | 1.33 | 90% of untreated control | – | – | Parent drug as % of total drug in the cell (L1210 cells [1]; 500 μM analogue): 100%; Parent drug in L1210 cells (L1210 cells [1]; 500 μM analogue): 1300 pmols/10^6; N-Monodealkylation (result in words) (L1210 cells [1]; 500 μM analogue, Trihydrochloride): no metabolic products were found; N-Monodealkylation (result in words) (L1210 cells [1]; 500 μM analogue, listed as DP-[6,5], Trihydrochloride): no N-depropylation; PUT reduced by (L1210 cells [6]; 500 μM, 48 hours): 50%; SPD reduced by (L1210 cells [6]; 500 μM, 48 hours): 30%
CCCNCCCCNCCCCNCCC [DPHSPD, N^1,N^9-Dipropylhomospermidine Trihydrochloride] | > 100 | 6 | 86% of untreated control | 67 | 123% of untreated control | 0 | 19 | 144 | 0 | 7 | 111 | 3.12 | 3.68 | 420% of untreated control | – | – | Elaboration to tetraamine (result in words) (L1210 cells [1]; 500 μM analogue): elaboration of N-Monoalkyl [4,4]; Parent drug as % of total drug in the cell (L1210 cells [1]; 500 μM analogue): 87.7%; Parent drug in L1210 cells (L1210 cells [1]; 500 μM analogue): 3149 pmols/10^6
CCCNCCCNCCCNCCC [DPNSPD, N^1,N^7-Dipropylnorspermidine Trihydrochloride] | > 100 | 60 | 100% of untreated control | 125 | 99% of untreated control | 70 | 76 | 96 | 68 | 71 | 102 | 0.49 | 1.24 | 220% of untreated control | 57.7 | 404 | –
CCNCCCNCCCCN [MESPD(N1), N^1-Ethylspermidine Trihydrochloride] | > 100 | 3 to 5 | 10 (10) percent of untreated control | 8.6 | 58% of untreated control | 0 | 25 | 80 | 0 | 14 | 53 | 4.20 | 4.73 | 430% of untreated control | 96.3 | 3946 | –
CCNCCCCNCCCN [MESPD(N8), N^8-Ethylspermidine Trihydrochloride] | > 100 | 40 | 17% of untreated control | 7 | 54% of untreated control | 0 | 26 | 84 | 0 | 15 | 61 | 4.41 | 4.96 | 400% of untreated control | 99.4 | 4825 | Elaboration to tetraamine (result in words) (L1210 cells [1]; 100 μM analogue, listed as N8-ME-[4,3], Trihydrochloride): no evidence of a tetraamine elaboration metabolite; also recorded: no elaboration of N8-Alkyl [4,3]
CCCNCCCNCCCN [MPNSPD, N^1-Propylnorspermidine Trihydrochloride] | > 100 | ~100 | 33% of untreated control | 33 | 38% of untreated control | 0 | 29 | 56 | 0 | – | < 50 | 3.07 | 4.78 | 470% of untreated control | 94.3 | 3019 | Elaboration to tetraamine (result in words) (L1210 cells [1]; 100 μM analogue, listed as MP-[3,3], Trihydrochloride): no evidence of a tetraamine elaboration metabolite; also recorded: no elaboration of N-Monoalkyl [3,3]
CCCNCCCNCCCCN [MPSPD(N1), N^1-Propylspermidine Trihydrochloride] | > 100 | 20 to 35 | 18% of untreated control | 3 | 56% of untreated control | 0 | 25 | 90 | 0 | 15 | 72 | 3.97 | 4.95 | 1200% of untreated control | 93.9 | 4238 | –
CCCNCCCCNCCCN [MPSPD(N8), N^8-Propylspermidine Trihydrochloride] | > 100 | 50 to 60 | 14% of untreated control | 8.5 | 64% of untreated control | 0 | 33 | 103 | 0 | 16 | 95 | 3.52 | 5.16 | 500% of untreated control | 99.3 | 3549 | Elaboration to tetraamine (result in words) (L1210 cells [1]; 100 μM analogue, listed as N8-MP-[4,3], Trihydrochloride): no evidence of a tetraamine elaboration metabolite; also recorded: no elaboration of N8-Alkyl [4,3]
